Active and inactive are the calls of the source. The rule behind the calls is not given here.
Key:
CYP1A1 [1] = test: Potentiation factor, ratio of IC50 for wild type HEK293 cells to IC50 of HEK293 cells expressing CYP1A1; assay type: ADME, cell-based; settings: human, wild type HEK293 cells and HEK293 cells expressing CYP1A1; read-out: Ratio IC50
RT-112 [2] = test: Antiproliferative activity against human RT112 cells expressing CYP1A1 assessed as growth inhibition after 96 hrs by MTT assay; assay type: functional, cell-based; settings: RT-112, 96 h
CHO [3] = test: Antiproliferative activity against CHO cells assessed as growth inhibition after 96 hrs by MTT assay; assay type: cell-based; settings: Cricetulus griseus
CHO [4] = test: Antiproliferative activity against CHO cells expressing CYP1A1 assessed as growth inhibition after 96 hrs by MTT assay; assay type: functional, cell-based; settings: Cricetulus griseus
CYP1A1 [5] = test: Potentiation factor, ratio of IC50 for wild type CHO cells to IC50 of CHO cells expressing CYP1A1; assay type: ADME, cell-based, Cricetulus griseus; settings: chinese hamster, wild type CHO cells and CHO cells expressing CYP1A1; read-out: Ratio IC50
HEK293 [6] = test: Antiproliferative activity against human HEK293 cells assessed as growth inhibition after 96 hrs by MTT assay; assay type: cell-based; settings: HEK293, 96 h
HEK293 [7] = test: Antiproliferative activity against human HEK293 cells expressing CYP2W1 assessed as growth inhibition after 96 hrs by MTT assay; assay type: functional, cell-based; settings: HEK293, 96 h
RT-112 [8] = test: Induction of DNA damage in human RT112 cells assessed as phosphorylation of gammaH2A.X at 0.5 to 5 uM after 48 hrs by Western blotting analysis; assay type: functional, cell-based
HEK293 [9] = test: Induction of DNA damage in human HEK293 cells expressing CYP2W1 assessed as phosphorylation of gammaH2A.X at 0.5 to 5 uM after 48 hrs by Western blotting analysis; assay type: functional, cell-based
HEK293 [10] = test: Induction of DNA damage in mock-transfected human HEK293 assessed as phosphorylation of gammaH2A.X at 0.5 to 5 uM after 48 hrs by Western blotting analysis; assay type: cell-based; settings: hek293, 48 h
RT-112 [11] = test: Induction of cell death in human RT112 cells after 48 hrs at 0.5 to 5 uM by trypan blue assay; assay type: functional, cell-based
HEK293 [12] = test: Induction of cell death in mock-transfected human HEK293 cells t 0.5 to 5 uM after 48 hrs by trypan blue assay; assay type: cell-based; settings: hek293, 48 h
HEK293 [13] = test: Induction of cell death in human HEK293 cells expressing CYP2W1 t 0.5 to 5 uM after 48 hrs by trypan blue assay; assay type: functional, cell-based
Liver = test: Drug metabolism in mouse liver homogenate at 100 uM up tp 120 mins by LC/MS analysis; assay type: ADME, tissue-based; settings: tissue homogenate, 2 h
[14] = Drug metabolism in mouse liver microsomes at 100 uM after 2 hrs by HPLC/mass spectrometry analysis in presence of NADPH; assay type: ADME, Microsome
[15] = Antiproliferative activity against human EJ138 cells treated with extract obtained from 1 hr incubation of compound with control bactosome measured after 96 hrs by MTT assay; assay type: functional, cell-based
[16] = Potentiation factor, ratio of IC50 for human EJ138 cells treated with extract obtained from 1 hr incubation of compound with control bactosome to IC50 of human EJ138 treated with extract obtained from 1 hr incubation of compound with CYP3A4 bactosome; assay type: functional
[17] = Potentiation factor, ratio of IC50 for human EJ138 cells treated with extract obtained from 1 hr incubation of compound with control bactosome to IC50 of human EJ138 treated with extract obtained from 1 hr incubation of compound with CYP2D6 bactosome; assay type: functional
[18] = Antiproliferative activity against human EJ138 cells treated with extract obtained from 1 hr incubation of compound with CYP2D6 bactosome measured after 96 hrs by MTT assay; assay type: functional, cell-based
[19] = Antiproliferative activity against human EJ138 cells after 96 hrs by MTT assay; assay type: functional, cell-based; settings: EJ138, 96 h
[20] = Antiproliferative activity against human EJ138 cells treated with extract obtained from 1 hr incubation of compound with CYP1A1 bactosome measured after 96 hrs by MTT assay; assay type: functional, cell-based
[21] = Antiproliferative activity against human EJ138 cells treated with extract obtained from 1 hr incubation of compound with CYP1A2 bactosome measured after 96 hrs by MTT assay; assay type: functional, cell-based
[22] = Antiproliferative activity against human EJ138 cells treated with extract obtained from 1 hr incubation of compound with CYP1B1 bactosome measured after 96 hrs by MTT assay; assay type: functional, cell-based
[23] = Potentiation factor, ratio of IC50 for human EJ138 cells treated with extract obtained from 1 hr incubation of compound with control bactosome to IC50 of human EJ138 treated with extract obtained from 1 hr incubation of compound with CYP1B1 bactosome; assay type: functional
[24] = Potentiation factor, ratio of IC50 for human EJ138 cells treated with extract obtained from 1 hr incubation of compound with control bactosome to IC50 of human EJ138 treated with extract obtained from 1 hr incubation of compound with CYP1A2 bactosome; assay type: functional
[25] = Potentiation factor, ratio of IC50 for human EJ138 cells treated with extract obtained from 1 hr incubation of compound with control bactosome to IC50 of human EJ138 treated with extract obtained from 1 hr incubation of compound with CYP1A1 bactosome; assay type: functional
[26] = Antiproliferative activity against human EJ138 cells treated with extract obtained from 1 hr incubation of compound with CYP3A4 bactosome measured after 96 hrs by MTT assay; assay type: functional, cell-based

Question: With `COc1ccc2[nH]c(C(=O)N3CC(CCl)c4c3cc(O)c3[nH]ccc43)cc2c1` (stereo not drawn) as the compound, how does the selectivity ratio (CYP1A1 [1]) read?
Answer: 1.2

Question: What about the IC50 (RT-112 [2]) of the same compound?
Answer: 0.000125 µM

Question: And the IC50 (CHO [3])?
Answer: 0.000167 µM

Question: What about the IC50 (CHO [4]) of the same compound?
Answer: 0.000624 µM

Question: What about the selectivity ratio (CYP1A1 [5]) of the same compound?
Answer: 0.2

Question: And the IC50 (HEK293 [6])?
Answer: 0.000453 µM

Question: What about the IC50 (HEK293 [7]) of the same compound?
Answer: 0.000376 µM

Question: What does the source list for `O=C(c1cc2cc(F)ccc2[nH]1)N1CC(CCl)c2c1ccc1[nH]ccc21` (stereo not drawn)?
Answer: selectivity ratio (CYP1A1 [1]): 21; IC50 (RT-112 [2]): 11.1 µM; IC50 (CHO [3]): 22.6 µM; IC50 (CHO [4]): 0.09 µM; selectivity ratio (CYP1A1 [5]): 251; IC50 (HEK293 [7]): 0.5 µM

Question: Which results are given for `COc1cc2cc(C(=O)N3CC(CCl)c4c3ccc3[nH]ccc43)[nH]c2cc1OC` (stereo not drawn)?
Answer: selectivity ratio (CYP1A1 [1]): 1.3; IC50 (RT-112 [2]): 0.3 µM; IC50 (CHO [3]): 3 µM; IC50 (CHO [4]): < 0.001 µM; selectivity ratio (CYP1A1 [5]): > 3000; IC50 (HEK293 [7]): 6.1 µM; Activity (RT-112 [8]): Active; Activity (HEK293 [9]): Active; Activity (HEK293 [10]): Non-toxic; Activity (RT-112 [11]): Active; Activity (HEK293 [12]): Non-toxic; Activity (HEK293 [13]): Active

Question: What does the source list for `O=C(c1cc2cc(F)cc(F)c2[nH]1)N1CC(CCl)c2c1ccc1[nH]ccc21` (stereo not drawn)?
Answer: selectivity ratio (CYP1A1 [1]): 1.1; IC50 (RT-112 [2]): 12.3 µM; IC50 (CHO [3]): 21 µM; IC50 (CHO [4]): > 1 µM; selectivity ratio (CYP1A1 [5]): < 21; IC50 (HEK293 [7]): 9.1 µM

Question: For `COc1cc2cc(C(=O)N3CC(CCl)c4c3ccc3[nH]ccc43)[nH]c2c(OC)c1OC` (stereo not drawn), which selectivity ratio (CYP1A1 [1]) is on record?
Answer: 1.1

Question: What about the IC50 (RT-112 [2]) of the same compound?
Answer: 7 µM

Question: What about the IC50 (CHO [3]) of the same compound?
Answer: 7.5 µM

Question: And the IC50 (CHO [4])?
Answer: 3.1 µM

Question: What about the selectivity ratio (CYP1A1 [5]) of the same compound?
Answer: 2.4

Question: What about the IC50 (HEK293 [7]) of the same compound?
Answer: 11.1 µM

Question: And the Activity (RT-112 [8])?
Answer: Active

Question: What about the Activity (HEK293 [9]) of the same compound?
Answer: Active

Question: And the Activity (HEK293 [10])?
Answer: Non-toxic

Question: What about the Activity (RT-112 [11]) of the same compound?
Answer: Active

Question: What about the Activity (HEK293 [12]) of the same compound?
Answer: Non-toxic

Question: And the Activity (HEK293 [13])?
Answer: Active

Question: For `COc1ccc2[nH]c(C(=O)N3CC(CCl)c4c3ccc3ccccc43)cc2c1` (stereo not drawn), which Drug metabolism (Liver) is on record?
Answer: Active

Question: And the Drug metabolism [14]?
Answer: Active

Question: What about the IC50 [15] of the same compound?
Answer: 1.99 µM

Question: What about the “Ratio IC50” value [16] of the same compound?
Answer: 1.91

Question: What about the IC50 (RT-112 [2]) of the same compound?
Answer: > 50 µM

Question: What about the IC50 (CHO [3]) of the same compound?
Answer: > 50 µM

Question: And the IC50 (CHO [4])?
Answer: 0.96 µM

Question: And the IC50 (HEK293 [7])?
Answer: > 50 µM

Question: And the “Ratio IC50” value [17]?
Answer: 0.79

Question: And the IC50 [18]?
Answer: 2.53 µM

Question: And the IC50 [19]?
Answer: 2.88 µM

Question: What about the IC50 [20] of the same compound?
Answer: 0.02 µM

Question: And the IC50 [21]?
Answer: 2.23 µM

Question: What about the IC50 [22] of the same compound?
Answer: 1.53 µM

Question: What about the “Ratio IC50” value [23] of the same compound?
Answer: 1.3

Question: And the “Ratio IC50” value [24]?
Answer: 0.9

Question: And the “Ratio IC50” value [25]?
Answer: 100

Question: And the IC50 [26]?
Answer: 1.04 µM

Question: For `O=C(c1cc2cc(F)c(F)cc2[nH]1)N1CC(CCl)c2c1ccc1[nH]ccc21` (stereo not drawn), which selectivity ratio (CYP1A1 [1]) is on record?
Answer: 2.6

Question: And the IC50 (RT-112 [2])?
Answer: 1.8 µM

Question: And the IC50 (CHO [3])?
Answer: 18.4 µM

Question: And the IC50 (CHO [4])?
Answer: 0.23 µM

Question: And the selectivity ratio (CYP1A1 [5])?
Answer: 80

Question: What about the IC50 (HEK293 [7]) of the same compound?
Answer: 3.7 µM

Question: With `COc1ccc2[nH]c(C(=O)N3CC(CCl)c4c3cc(O)c3ccccc43)cc2c1` (stereo not drawn) as the compound, how does the selectivity ratio (CYP1A1 [1]) read?
Answer: 0.2

Question: What about the IC50 (RT-112 [2]) of the same compound?
Answer: 151 µM

Question: And the IC50 (CHO [3])?
Answer: 194 µM

Question: And the IC50 (CHO [4])?
Answer: 102 µM

Question: And the selectivity ratio (CYP1A1 [5])?
Answer: 1.9

Question: What about the IC50 (HEK293 [7]) of the same compound?
Answer: 641 µM

Question: Which results are given for `O=C(c1cc2cc(O)ccc2[nH]1)N1CC(CCl)c2c1ccc1[nH]ccc21` (stereo not drawn)?
Answer: selectivity ratio (CYP1A1 [1]): 0.8; IC50 (RT-112 [2]): 32.7 µM; IC50 (CHO [3]): 3.3 µM; IC50 (CHO [4]): 0.3 µM; selectivity ratio (CYP1A1 [5]): 11; IC50 (HEK293 [7]): 20.5 µM

Question: Which results are given for `COc1ccc2[nH]c(C(=O)N3CC(CCl)c4c3ccc3[nH]ccc43)cc2c1` (stereo not drawn)?
Answer: selectivity ratio (CYP1A1 [1]): 14.7; IC50 (RT-112 [2]): 0.2 µM; IC50 (CHO [3]): 3.2 µM; IC50 (CHO [4]): < 0.001 µM; selectivity ratio (CYP1A1 [5]): > 3200; IC50 (HEK293 [7]): 0.6 µM; Activity (RT-112 [8]): Active; Activity (HEK293 [9]): Active; Activity (HEK293 [10]): Non-toxic; Activity (RT-112 [11]): Active; Activity (HEK293 [12]): Non-toxic; Activity (HEK293 [13]): Active

Question: For `O=C(c1cc2cc(Cl)ccc2[nH]1)N1CC(CCl)c2c1ccc1[nH]ccc21` (stereo not drawn), which selectivity ratio (CYP1A1 [1]) is on record?
Answer: 41.7

Question: What about the IC50 (RT-112 [2]) of the same compound?
Answer: 0.7 µM

Question: And the IC50 (CHO [3])?
Answer: 23.2 µM

Question: What about the IC50 (CHO [4]) of the same compound?
Answer: < 0.001 µM

Question: What about the selectivity ratio (CYP1A1 [5]) of the same compound?
Answer: > 23200

Question: And the IC50 (HEK293 [7])?
Answer: 0.3 µM

Question: For `CS(=O)(=O)c1cc(F)cc2cc(C(=O)N3CC(CCl)c4c3ccc3[nH]ccc43)[nH]c12` (stereo not drawn), which selectivity ratio (CYP1A1 [1]) is on record?
Answer: 0.9

Question: What about the IC50 (RT-112 [2]) of the same compound?
Answer: 7.7 µM

Question: And the IC50 (CHO [3])?
Answer: 3.2 µM

Question: What about the IC50 (CHO [4]) of the same compound?
Answer: 4.1 µM

Question: What about the selectivity ratio (CYP1A1 [5]) of the same compound?
Answer: 0.8

Question: What about the IC50 (HEK293 [7]) of the same compound?
Answer: 12.2 µM

Source: ChEMBL document CHEMBL2406908, “Re-engineering of the duocarmycin structural architecture enables bioprecursor development targeting CYP1A1 and CYP2W1 for biological activity” (J Med Chem, 2013)
